The values that follow come from US4902678A, “Anti-viral compositions” (priority 1988, dated 1990).

SMILES strings stand for the structures.

One data set concerns human herpesviruses. To be noted: cited from earlier work.
Data set [1] relates to herpes virus-specific thymidine kinase (TK). As to conditions: hypothesis on mode of action; cited from earlier work.
Data set [2] relates to herpes virus-specific DNA-polymerase (DP). As to conditions: hypothesis on mode of action; cited from earlier work.
Data set [3] concerns Cellular TK and DP enzymes. As to conditions: cited from earlier work.
Data set [4] deals with HSV mutants lacking the ability to induce DP (DP-mutants). To be noted: cited from earlier work.
The subject of a further data set is normal host cells. To be noted: cited from earlier work.
The subject of another data set is HSV-1-Patton. The data set is described as follows: Plaque reduction / viral plaque titration, HSV-1-Patton in HFF cells.
Data set [5] deals with HSV mutants lacking the ability to induce DP (DP-mutants). The data set is described as follows: Activity against HSV mutants lacking the ability to induce DP (statement). Set-up: species or system Herpes simplex virus.
For another data set, the system named is HSV-2-EL 1. As to conditions: Table 3, HFF cells, G* 2.0 μg/ml, PAA 76 μg/ml, alone or combined; for Virus titer: no-drug control 170.
The next data set has as its system HSV-1-EL 11. To be noted: Table 3, HFF cells, G* 0.4 μg/ml, PAA 25 μg/ml, alone or combined; for Virus titer: no-drug control 8.0.
In the next data set the test system is HSV-1-227. Put plainly: Viral plaque titration, HSV-1-227 in HFF cells. As to conditions: Table 3, G* 2.0 μg/ml, PAA 80 μg/ml, alone or combined; for Virus titer: no-drug control 28.
For another data set, the system named is HSV-2-EL 4. Put plainly: Viral plaque titration, HSV-2-EL 4 in HFF cells. To be noted: alone or combined; for Virus titer: no-drug control 750.
For the next data set, the system named is HSV-2-EL 6. Put plainly: Viral plaque titration, HSV-2-EL 6 in HFF cells. As to conditions: alone or combined.
The subject of another data set is HSV-2-EL 3. Put plainly: Viral plaque titration, HSV-2-EL 3 in HFF cells. To be noted: Table 3, G* 2.0 μg/ml, PAA 82 μg/ml, alone or combined; for Virus titer: no-drug control 77.
The conditions of data set [6]: topical formulation, drug concentrations in excess of 100mM; cited from earlier work.
Setting [7] is: Table 1, multiplicity of infection less than one, G* 1.2, BVDU 0.11, ACG 2.0, PAA 250 μg/ml alone, same concentrations in combinations, no-drug control 147.
[8] abbreviates: Table 1, ratio of control titer to drug titer, G* 1.2, BVDU 0.11, ACG 2.0, PAA 250 μg/ml alone, same concentrations in combinations.
The mark [9] stands for this setting: Table 2, G* 3.0 μg/ml, PFA 80 μg/ml.
[10] abbreviates: Table 3, G* 2.0 μg/ml, PAA 90 μg/ml.
The mark [11] stands for this setting: Table 2, G* 0.7 μg/ml, PFA 80 μg/ml.
[12] abbreviates: Table 2, G* 0.7 μg/ml, PFA 80 μg/ml, no-drug control 150.
The mark [13] stands for this setting: Table 3, G* 0.6 μg/ml, PAA 90 μg/ml.
The mark [14] stands for this setting: Table 3, G* 0.6 μg/ml, PAA 90 μg/ml, no-drug control 180.
The mark [15] stands for this setting: Table 2, G* 0.7 μg/ml, PFA 80 μg/ml, alone or combined.
Where [16] appears, read: Table 2, G* 0.7 μg/ml, PFA 80 μg/ml, alone or combined, no-drug control 3400.

Experimental for HSV-1-227: (§1) Human fetal fibroblasts (HFF) derived from fetal tissues were used in this study. Cells were grown and maintained in Basal Medium Eagle (BME) supplemented with 0.112% sodium bicarbonate, 2mML-glutamine, 2mg % Neomycin and 20% (vol/vol) calf serum.
(§2) HSV-2-EL 1, HSV-2-EL 3, HSV-2-EL 4, HSV-2-EL 6, HSV-1-EL 11 and HSV-1-227 are recent clinical isolates.
(§3) A viral plaque titration method (Roizman and Roane, 1961) was used to deteremine the titer of the HSV strain. Tissue culture dishes (35 by 10mm, Corning) were seeded with cells and used for assays when they were approximately 75% monolayer. Volumes (0.2ml) of logarithmic dilutions of the virus strain were inoculated onto each of two tissue culture dishes and adsorbed for 1 hr with intermittent shaking, the inoculum was removed and 2ml of 20% BME containing 0.5% human immune serum globulin was added. After a 48 hr. incubation period at 36° C. in a 5% CO2 atmosphere, the overlay medium was removed, and the cell sheets were stained with a 0.05% aqueous crystal violet solution. The plaque numbers were counted with the aid of a Nikon profile projector which magnified the dishes 10X. Duplicate results were averaged, and the number of plaque-forming units (PFU) was calculated. The virus titre is thus expressed as a number of plaque forming units to be seen after growth under these conditions.
(§4) Then combinations of the drugs were tested for activity by viral plaque titration, at concentrations which were multiples of the ED-50, of the individual drugs. In combinations involving G*, BVDU and AGC, a concentration ten times that of its ED-50 was used in the combination. This was intended to ensure a concentration sufficiently high to limit the number of partially drug-resistant virus plaques to a small fraction in respect of each drug of the combination. In respect of PAA, a concentration of five times ED-50 was used, to avoid cell toxicity problems. The drugs were individually plaque titrated at the same concentrations for comparison purposes.
(§5) The experiments described in Examples 1 and 2 were essentially repeated, but using the drugs G* and PAA alone and in combinations against samples of HFF cells each infected with one of six HSV strains, two of which were type 1 and four of which were type 2. Plaque titration methods as described above were used.
Experimental for HSV-1-EL 11: as §1, §2, §3, §4, §5
Experimental for HSV-1-Patton: as §1, §3
As antiviral drugs in these experiments, there were used acycloguanosine (ACG), phosphonoacetic acid (PAA), bromovinyl deoxyuridine (BVDU), phosphonoformic acid (PFA) and 9-[[2-hydroxy-1-(hydroxymethyl)ethoxy]methyl]guanine (G*). Stock solutions, 3mg/ml, of each drug were prepared as follows, kept at -20° C., and appropriate dilutions thereof were made in 20% BME just before usage:
In order to make comparisons between the activities of the various drugs and combinations, experiments were conducted by plaque titration to determine for each drug its viral ED-50 (i.e. the concentration thereof which inhibits HSV plaque formation by 50% in the HFF cells, as compared with cell cultures in the absence of the drug). For this purpose, tissue culture dishes (35 by 10 mm) with HFF cell monolayers at 75% confluence were inoculated with approximately 50 plaque-forming units of virus per 0.2 ml, and the virus was allowed to adsorb for 1 hr with intermittent shaking. After removal of the inoculum, 2 ml of 20% BME with 0.5% immune globulin and threefold dilutions of the appropriate drug were added to duplicate dishes. One set of dishes received no drug and was later used for the "no-drug control". After a 48 hr incubation period at 36° C. in a 5% CO2 atmosphere, the overlay medium was removed, the cells were stained as described above, and plaques were counted. After averaging the counts of duplicate plates, the fraction of plaques emerging in the presence of each drug dilution was calculated as a percent of the control. Each drug titration was plotted on semilogarithmic graph paper, with the number of plaques per dish as vertical axis and the drug concentration as horizontal axis. The viral ED-50 concentration was that amount of drug per ml of overlay medium that inhibited plaque numbers by 50%, compared with no-drug controls, and this was read off the graphic plot of the data.
Then combinations of the drugs were tested for activity by viral plaque titration, at concentrations which were multiples of the ED-50, of the individual drugs. In combinations involving G*, BVDU and AGC, a concentration ten times that of its ED-50 was used in the combination. […] In respect of PAA, a concentration of five times ED-50 was used, to avoid cell toxicity problems.
Experimental for HSV-2-EL 1: as §1, §2, §3, §4, §5
Experimental for HSV-2-EL 3: as §1, §2, §3, §4, §5
Experimental for HSV-2-EL 4: as §1, §2, §3, §4
(§6) In this example, combinations of G* and phosphonoformic acid PFA were tested, by plaque titration methods, for activity against a variety of herpesvirus strains in HFF cells, using procedures previously described. A stock solution of PFA was made up ahead of time, by dissolving 3 mg PFA in 1 ml of 20% BME, and stored at -20° C. It was appropriately diluted in 20% BME just before usage. Two herpesvirus type 2 strains and one herpesvirus type 1 strain were tested.
as §5
Experimental for HSV-2-EL 6: as §1, §2, §3, §4, §6, §5

With `O=CC[C@@H](O)[C@H](O)[C@H](O)CO` [2DB, 2-deoxy-D-glucose], the “Activity against herpesviruses in prior art” value (shortened to “Activity against herpesviruses”) in the data set on human herpesviruses is on record as “some demonstrated activity against human herpesviruses”.
As for `Nc1nc2c(ncn2COCCO)c(=O)[nH]1` [ACG, 9-[2-hydroxyethoxymethyl]guanine], the “Interaction with viral thymidine kinase” value in [1] is “interaction with the herpes virus-specific thymidine kinase (TK) resulting in phosphorylation of the acycloguanosine”. In [2], the “Interaction with viral DNA polymerase” value is reported as “inhibits the action of the herpes virus-specific DNA-polymerase (DP)”. The “Effect on cellular TK and DP enzymes” value in data set [3] is recorded as “only slightly affected”. In addition, the “Resistance of DP-mutants of HSV to drug” value in [4] was “highly resistant”. The “Activity against herpesviruses” value in the data set on human herpesviruses is on record as “relatively high antiviral activity”. In addition, the “Toxicity for uninfected cells” value in the data set on normal host cells is recorded as “relatively low toxicity for uninfected cells”. The Virus titer in the data set with HSV-1-Patton (setting [7]) turned out to be 4.7 PFU/ml × 10^5. The Fold titer reduction with HSV-1-Patton (setting [8]) came to 31 fold.
For the compound `O=c1[nH]c(=O)n([C@H]2C[C@H](O)[C@@H](CO)O2)cc1/C=C/Br` [BVDU, bromovinyl deoxyuridine], in the data set on HSV-1-Patton (setting [7]), the Virus titer is given as 2.1 PFU/ml × 10^5. Further, the Fold titer reduction in the data set on HSV-1-Patton (setting [8]) amounted to 70 fold.
Take `Nc1nc2c(ncn2COC(CO)CO)c(=O)[nH]1` [G*]: the “Inhibition of DP-mutants of HSV” value in data set [5] is reported as “able to inhibit HSV mutants lacking the ability to induce DP”. The Fold titer reduction in the data set on HSV-2-EL 1 stood at 19 fold; with HSV-1-EL 11, 22 fold; in the data set with HSV-1-227, 110 fold; with HSV-2-EL 4 (setting [9]), 36 fold; with HSV-2-EL 4 (setting [10]), 130 fold; in the data set with HSV-2-EL 6 (setting [11]), 3.8 fold. The Fold titer reduction in the data set on HSV-2-EL 6 (setting [13]) came out at 200 fold; in the data set with HSV-2-EL 3, 7.7 fold; in the data set on HSV-1-Patton (setting [8]), 130 fold; in the data set with HSV-1-Patton (setting [15]), 24 fold. The Virus titer in the data set on HSV-2-EL 1 is recorded as 8.9 pfu/ml × 10^5; with HSV-1-EL 11 it was 0.37 pfu/ml × 10^5; in the data set with HSV-1-227 it was 0.25 pfu/ml × 10^5; in the data set on HSV-2-EL 4 (setting [9]) it was 21 pfu/ml × 10^5; in the data set on HSV-2-EL 4 (setting [10]) it was 5.9 pfu/ml × 10^5; in the data set on HSV-2-EL 6 (setting [12]), 40 pfu/ml × 10^5. In addition, the Virus titer with HSV-2-EL 6 (setting [14]) is on record as 0.90 pfu/ml × 10^5; in the data set with HSV-2-EL 3 it was 10.0 pfu/ml × 10^5; with HSV-1-Patton (setting [7]), 1.1 PFU/ml × 10^5; in the data set on HSV-1-Patton (setting [16]), 140 pfu/ml × 10^5. Moreover, in [1], the “Interaction with viral thymidine kinase” value is “inhibits the activity of the viral thymidine kinase enzyme”. In addition, the “Interaction with viral DNA polymerase” value in data set [2] is given as “not involved in the activity of virus-specific DNA-polymerase”.
As for `O=c1[nH]c(=O)n([C@H]2C[C@H](O)[C@@H](CO)O2)cc1I` [IDU, 5-iododeoxyuridine], in the data set with human herpesviruses, the “Activity against herpesviruses” value is on record as “effective only against herpes infections of the eyes”. In the data set with normal host cells (prior art), the “Side effects / toxicity to normal cells” value is recorded as “undesirable side effects, associated with toxicity to normal cells”.
`O=C(O)CP(=O)(O)O` [PAA, phosphonoacetic acid]: the Fold titer reduction is reported as 500 fold in the data set on HSV-2-EL 1; 2.9 fold in the data set on HSV-1-EL 11; 26 fold in the data set on HSV-1-227; 7500 fold in the data set on HSV-2-EL 4 (setting [10]); 5.8 fold with HSV-2-EL 6 (setting [13]); 210 fold in the data set on HSV-2-EL 3. For the same compound, the Fold titer reduction in the data set with HSV-1-Patton (setting [8]) worked out at 50 fold. Also, the Virus titer in the data set with HSV-2-EL 1 is given as 0.34 pfu/ml × 10^5; in the data set on HSV-1-EL 11 it was 2.8 pfu/ml × 10^5; with HSV-1-227, 1.1 pfu/ml × 10^5; in the data set on HSV-2-EL 4 (setting [10]), 0.10 pfu/ml × 10^5; with HSV-2-EL 6 (setting [14]), 31.0 pfu/ml × 10^5; in the data set with HSV-2-EL 3, 0.36 pfu/ml × 10^5. For the same compound, the Virus titer with HSV-1-Patton (setting [7]) was found to be 3.2 PFU/ml × 10^5. Besides, in data set [2], the “Interaction with viral DNA polymerase” value was “interference with viral DNA polymerase, not viral thymidine kinase”. In data set [4], the “Resistance of DP-mutants of HSV to drug” value is recorded as “highly resistant”. In data set [6], the “Skin irritation” value is reported as “skin irritant”. The “Activity against herpesviruses” value in the data set with human herpesviruses is on record as “some demonstrated activity against human herpesviruses”.
On to `O=C(O)P(=O)(O)O` [PFA, phosphonoformic acid], for which the “Interaction with viral DNA polymerase” value in [2] was “interference with viral DNA polymerase, not viral thymidine kinase”. Also, the “Skin irritation” value in data set [6] is on record as “do not appear harmful”. Besides, the “Activity against herpesviruses” value in the data set with human herpesviruses is “some demonstrated activity against human herpesviruses”. Besides, the Fold titer reduction with HSV-2-EL 4 (setting [9]) is 2,700 fold; in the data set with HSV-2-EL 6 (setting [11]) it was 3.1 fold; in the data set on HSV-1-Patton (setting [15]), 4.5 fold; in the data set on HSV-1-Patton (Table 2, G* 0.7 μg/ml, PFA 80 μg/ml, alone or combined, listed as PFF) it was 750 fold. Further, the values for the Virus titer in the data set with HSV-2-EL 4 (setting [9]), in the data set on HSV-2-EL 6 (setting [12]) and in the data set on HSV-1-Patton (setting [16]) were 0.28 pfu/ml × 10^5, 48 pfu/ml × 10^5 and 750 pfu/ml × 10^5, respectively.
`Nc1ncnc2c1ncn2[C@@H]1O[C@H](CO)[C@@H](O)[C@@H]1O` [ara-A, Adenine arabinoside]: the “Activity against herpesviruses” value in the data set with human herpesviruses is listed as “some demonstrated activity against human herpesviruses”.
